Reference: patent US20240270720A1, “INDAZOLE YL BENZIMIDAZOLE DERIVATIVE OR PHARMACEUTICALLY ACCEPTABLE SALT THEREOF, AND USE THEREOF” (INDUSTRY-UNIVERSITY COOPERATION FOUNDATION HANYANG …, priority 2021, published 2024)
Changes are numbered by the printed parent chain. Read-outs that look alike come from different tables or passages of the source.

Experiments:
FLT3 wild type = target: T1, FLT3 wild type (Homo sapiens, UniProt P36888); assay: Kinase HotSpot radiometric kinase assay (Reaction Biology); type: biochemical
T1 construct: purchased Reaction Biology Corp. (Kinase HotSpot service)
T1 sequence (P36888 27-993): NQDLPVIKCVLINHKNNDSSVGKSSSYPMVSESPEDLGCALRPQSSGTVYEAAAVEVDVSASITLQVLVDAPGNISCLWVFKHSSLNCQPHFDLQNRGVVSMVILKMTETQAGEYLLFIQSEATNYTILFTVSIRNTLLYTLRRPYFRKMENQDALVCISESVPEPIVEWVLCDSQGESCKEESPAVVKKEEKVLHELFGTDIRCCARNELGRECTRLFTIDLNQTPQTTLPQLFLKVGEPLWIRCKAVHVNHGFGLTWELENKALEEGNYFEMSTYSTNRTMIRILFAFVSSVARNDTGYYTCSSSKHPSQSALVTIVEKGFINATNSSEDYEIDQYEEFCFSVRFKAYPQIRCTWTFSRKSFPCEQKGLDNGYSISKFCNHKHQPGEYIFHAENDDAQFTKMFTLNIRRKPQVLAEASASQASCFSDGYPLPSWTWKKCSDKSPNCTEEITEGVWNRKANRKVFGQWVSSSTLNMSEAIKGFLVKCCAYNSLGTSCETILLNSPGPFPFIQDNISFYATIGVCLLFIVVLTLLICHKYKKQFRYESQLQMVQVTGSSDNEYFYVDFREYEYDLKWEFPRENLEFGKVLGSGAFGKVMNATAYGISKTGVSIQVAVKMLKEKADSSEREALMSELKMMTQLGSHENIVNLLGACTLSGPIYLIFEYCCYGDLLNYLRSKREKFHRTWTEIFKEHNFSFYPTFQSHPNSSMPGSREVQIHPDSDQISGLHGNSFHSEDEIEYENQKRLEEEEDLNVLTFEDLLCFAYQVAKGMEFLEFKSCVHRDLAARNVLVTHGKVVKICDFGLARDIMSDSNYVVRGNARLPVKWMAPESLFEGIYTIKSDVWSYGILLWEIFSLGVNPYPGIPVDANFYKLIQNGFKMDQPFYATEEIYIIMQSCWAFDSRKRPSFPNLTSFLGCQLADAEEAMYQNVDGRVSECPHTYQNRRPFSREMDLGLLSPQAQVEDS
Procedure: (§1) Reaction Biology Corp. Kinase HotSpot SM service (www.reactionbiology.com) was used to determine IC50 values for all compounds and kinase profiles. The analysis protocol was as follows: In a final reaction volume of 25 μL, a peptide substrate, [[sequence]], 5 μM, ATP 10 μM, and FLT3(h) (5 to 10 mU) were incubated with 25 mM Tris pH 7.5, 0.02 mM EGTA, 0.66 mg/mL myelin basic protein, 10 mM Mg acetate and [γ-33P-ATP] (a concentration of approximately 500 cpm/pmol was required for specific activity). The reaction was initiated by adding the Mg-ATP mixture. After incubation at room temperature for 40 minutes, the reaction was stopped by adding 5 μL of a 3% phosphoric acid solution. Thereafter, 10 μL of the reactant was spotted on a P30 filter mat and washed three times for 5 minutes in 75 mM phosphoric acid and once in methanol before drying and scintillation counting.

FLT3 (D835Y) = target: T2, FLT3 (D835Y) (Homo sapiens, UniProt P36888, D835Y); assay: Kinase HotSpot radiometric kinase assay (Reaction Biology)
T2 sequence (P36888 27-993 D835Y): T1 sequence (P36888 27-993) with D809Y
Procedure: as §1

[1] = read-out: FLT3 (D835Y) IC50, Table 1

Row | SMILES | IC50 (FLT3 wild type; Table 1, read-out: FLT3 IC50) | melting point | IC50 (FLT3 (D835Y); [1]) | IC50 (FLT3 wild type; values given in nM, read-out: IC50 FLT3 wild type) | IC50 (FLT3 (D835Y))
1 | CC(C)(C)c1cc(NC(=O)Nc2ccc3[nH]c(-c4ccc5cn[nH]c5c4)nc3c2)no1 [Compound 8l, 1-(2-(1H-indazol-6-yl)-1H-benzo[di]imidazol-5-yl)-3-(5-(tert-butyl)isoxazol-3-yl)urea] | 1170 nM | 184 to 186 °C | – | – | –
2 | O=C(Nc1ccc2[nH]c(-c3ccc4cn[nH]c4c3)nc2c1)c1cc(N2CCOCC2)cc(C(F)(F)F)c1 [Compound 8d, N-(2-(1H-indazol-6-yl)-1H-benzo[di]imidazol-5-yl)-3-morpholino-5-(trifluoromethyl)benzamide] | 1030 nM | 195 to 196 °C | 151 nM | – | –
3 | CCN1CCN(c2cc(C(=O)Nc3ccc4[nH]c(-c5ccc6cn[nH]c6c5)nc4c3)cc(C(F)(F)F)c2)CC1(C)C [Compound 8z, N-(2-(1H-indazol-6-yl)-1H-benzo[di]imidazol-5-yl)-3-(4-ethyl-3,3-dimethylpiperazine-1-yl)-5-(trifluoromethyl)benzamide] | – | 153 to 154 °C | – | 65.9 nM | ~10 nM
4 | O=C(Nc1ccc2[nH]c(-c3ccc4cn[nH]c4c3)nc2c1)c1ccc(N2CCOCC2)c(C(F)(F)F)c1 [Compound 8f, N-(2-(1H-indazol-6-yl)-1H-benzo[di]imidazol-5-yl)-4-morpholino-3-(trifluoromethyl)benzamide] | 2510 nM | 202 to 204 °C | 370 nM | – | –
5 | CC(C)(C)c1cc(C(=O)Nc2ccc3[nH]c(-c4ccc5cn[nH]c5c4)nc3c2)no1 [Compound 8h, N-(2-(1H-indazol-6-yl)-1H-benzo[di]imidazol-5-yl)-5-(tert-butyl)isoxazole-3-carboxamide] | ~700 nM | 147 to 149 °C | – | – | 32 nM
6 | O=C(Nc1ccc2[nH]c(-c3ccc4cn[nH]c4c3)nc2c1)c1cnn(-c2ccccc2)c1C(F)(F)F [Compound 8g, N-(2-(1H-indazol-6-yl)-1H-benzo[di]imidazol-5-yl)-1-phenyl-5-(trifluoromethyl)-1H-pyrazole-4-carboxamide] | 1100 nM | 258 to 260 °C | – | – | –
7 | CN1CCC[C@@H](Nc2cc(C(=O)Nc3ccc4[nH]c(-c5ccc6cn[nH]c6c5)nc4c3)cc(C(F)(F)F)c2)C1 [Compound 8v, N-(2-(1H-indazol-6-yl)-1H-benzo[di]imidazol-5-yl)-3-((1-methylpiperidin-3-yl)amino)-5-(trifluoromethyl)benzamide] | – | 213 to 214 °C | – | – | –
8 | COc1ccc(/C=C/C(=O)Nc2ccc3[nH]c(-c4ccc5cn[nH]c5c4)nc3c2)cc1 [Compound 8k, (E)-N-(2-(1H-indazol-6-yl)-1H-benzo[di]imidazol-5-yl)-3-(4-methoxyphenyl)acrylamide] | 761 nM | 206 to 208 °C | – | – | –
9 | CN1CCC(Nc2cc(C(=O)Nc3ccc4[nH]c(-c5ccc6cn[nH]c6c5)nc4c3)cc(C(F)(F)F)c2)CC1 [Compound 8s, N-(2-(1H-indazol-6-yl)-1H-benzo[di]imidazol-5-yl)-3-((1-methylpiperidin-4-yl)amino)-5-(trifluoromethyl)benzamide] | – | 175 to 177 °C | – | – | –
10 | CN1CCC(Oc2cc(C(=O)Nc3ccc4[nH]c(-c5ccc6cn[nH]c6c5)nc4c3)cc(C(F)(F)F)c2)CC1 [Compound 8u, N-(2-(1H-indazol-6-yl)-1H-benzo[di]imidazol-5-yl)-3-((1-methylpiperidin-4-yl)oxy)-5-(trifluoromethyl)benzamide] | – | 293 to 295 °C | 55 nM | – | –
11 | CN1CCC(Oc2ccc(C(=O)Nc3ccc4[nH]c(-c5ccc6cn[nH]c6c5)nc4c3)cc2C(F)(F)F)CC1 [Compound 8x, N-(2-(1H-indazol-6-yl)-1H-benzo[di]imidazol-5-yl)-4-((1-methylpiperidin-4-yl)oxy)-3-(trifluoromethyl)benzamide] | 743 nM | 293 to 295 °C | – | – | –

The remaining lines, values ahead:

Row | IC50 (FLT3 wild type; Table 1, read-out: FLT3 IC50) | melting point | IC50 (FLT3 (D835Y); [1]) | IC50 (FLT3 wild type; values given in nM, read-out: IC50 FLT3 wild type) | IC50 (FLT3 (D835Y)) | SMILES
12 | 181 nM | 228 to 230 °C | 21 nM | – | – | CN1CCN(c2cc(C(=O)Nc3ccc4[nH]c(-c5ccc6cn[nH]c6c5)nc4c3)cc(C(F)(F)F)c2)CC1 [Compound 8a, N-(2-(1H-indazol-6-yl)-1H-benzo[di]imidazol-5-yl)-3-(4-methylpiperazin-1-yl)-5-(trifluoromethyl)benzamide]
13 | 286 nM | 166 to 168 °C | 87 nM | – | – | CCN1CCC(Nc2cc(C(=O)Nc3ccc4[nH]c(-c5ccc6cn[nH]c6c5)nc4c3)cc(C(F)(F)F)c2)CC1 [Compound 8t, N-(2-(1H-indazol-6-yl)-1H-benzo[di]imidazol-5-yl)-3-((1-ethylpiperidin-4-yl)amino)-5-(trifluoromethyl)benzamide]
14 | 409 nM | 154 to 156 °C | 131 nM | – | – | O=C(Nc1ccc2[nH]c(-c3ccc4cn[nH]c4c3)nc2c1)c1cc(N2CCN(C3CC3)CC2)cc(C(F)(F)F)c1 [Compound 8p, N-(2-(1H-indazol-6-yl)-1H-benzo[di]imidazol-5-yl)-3-(4-cyclopropylpiperazin-1-yl)-5-(trifluoromethyl)benzamide]
15 | 470 nM | 251 to 253 °C | – | – | – | Cc1nccn1-c1cc(C(=O)Nc2ccc3[nH]c(-c4ccc5cn[nH]c5c4)nc3c2)cc(C(F)(F)F)c1 [Compound 8c, N-(2-(1H-indazol-6-yl)-1H-benzo[di]imidazol-5-yl)-3-(2-methyl-1H-imidazol-1-yl)-5-(trifluoromethyl)benzamide]
16 | 639 nM | 239 to 241 °C | 110 nM | – | – | Cc1cn(-c2cc(C(=O)Nc3ccc4[nH]c(-c5ccc6cn[nH]c6c5)nc4c3)cc(C(F)(F)F)c2)cn1 [Compound 8b, N-(2-(1H-indazol-6-yl)-1H-benzo[di]imidazol-5-yl)-3-(4-methyl-1H-imidazol-1-yl)-5-(trifluoromethyl)benzamide]
17 | 290 nM | 164 to 166 °C | – | – | – | CCN1CCN(Cc2ccc(C(=O)Nc3ccc4[nH]c(-c5ccc6cn[nH]c6c5)nc4c3)cc2C(F)(F)F)CC1 [Compound 8w, N-(2-(1H-indazol-6-yl)-1H-benzo[di]imidazol-5-yl)-4-((4-ethylpiperazin-1-yl)methyl)-3-(trifluoromethyl)benzamide]
18 | 287 nM | 283 to 285 °C | – | – | – | CN(C)C1CCN(c2cc(C(=O)Nc3ccc4[nH]c(-c5ccc6cn[nH]c6c5)nc4c3)cc(C(F)(F)F)c2)C1 (centres unmarked) [Compound 8n, N-(2-(1H-indazol-6-yl)-1H-benzo[di]imidazol-5-yl)-3-(3-(dimethylamino)pyrrolidin-1-yl)-5-(trifluoromethyl)benzamide]
19 | 523 nM | 150 to 152 °C | – | – | – | O=C(Nc1ccc2[nH]c(-c3ccc4cn[nH]c4c3)nc2c1)c1cc(CN2CCN(C3CC3)CC2)cc(C(F)(F)F)c1 [Compound 8q, N-(2-(1H-indazol-6-yl)-1H-benzo[di]imidazol-5-yl)-3-((4-cyclopropylpiperazin-1-yl)methyl)-5-(trifluoromethyl)benzamide]
